Two compounds from ChEMBL document CHEMBL2074417, “The bisbenzylisoquinoline alkaloids, tetrandine and fangchinoline, enhance the cytotoxicity of multidrug resistance-related drugs via modulation of P-glycoprotein” (Anticancer Drugs, 1998) can be followed below.

Each structure is given as a SMILES string.

Series [1] deals with T1, ATP-dependent translocase ABCB1 (Homo sapiens, UniProt P08183). The series can be described thus: TP_TRANSPORTER: increase in Rhodamine 123 intracellular accumulation (R123: 4 uM, Tetrandine: 3 uM) in HCT15 cells. The class given is functional, cell-based. The settings on record: hct-15, 3 µM.
T1 sequence (P08183 whole entry): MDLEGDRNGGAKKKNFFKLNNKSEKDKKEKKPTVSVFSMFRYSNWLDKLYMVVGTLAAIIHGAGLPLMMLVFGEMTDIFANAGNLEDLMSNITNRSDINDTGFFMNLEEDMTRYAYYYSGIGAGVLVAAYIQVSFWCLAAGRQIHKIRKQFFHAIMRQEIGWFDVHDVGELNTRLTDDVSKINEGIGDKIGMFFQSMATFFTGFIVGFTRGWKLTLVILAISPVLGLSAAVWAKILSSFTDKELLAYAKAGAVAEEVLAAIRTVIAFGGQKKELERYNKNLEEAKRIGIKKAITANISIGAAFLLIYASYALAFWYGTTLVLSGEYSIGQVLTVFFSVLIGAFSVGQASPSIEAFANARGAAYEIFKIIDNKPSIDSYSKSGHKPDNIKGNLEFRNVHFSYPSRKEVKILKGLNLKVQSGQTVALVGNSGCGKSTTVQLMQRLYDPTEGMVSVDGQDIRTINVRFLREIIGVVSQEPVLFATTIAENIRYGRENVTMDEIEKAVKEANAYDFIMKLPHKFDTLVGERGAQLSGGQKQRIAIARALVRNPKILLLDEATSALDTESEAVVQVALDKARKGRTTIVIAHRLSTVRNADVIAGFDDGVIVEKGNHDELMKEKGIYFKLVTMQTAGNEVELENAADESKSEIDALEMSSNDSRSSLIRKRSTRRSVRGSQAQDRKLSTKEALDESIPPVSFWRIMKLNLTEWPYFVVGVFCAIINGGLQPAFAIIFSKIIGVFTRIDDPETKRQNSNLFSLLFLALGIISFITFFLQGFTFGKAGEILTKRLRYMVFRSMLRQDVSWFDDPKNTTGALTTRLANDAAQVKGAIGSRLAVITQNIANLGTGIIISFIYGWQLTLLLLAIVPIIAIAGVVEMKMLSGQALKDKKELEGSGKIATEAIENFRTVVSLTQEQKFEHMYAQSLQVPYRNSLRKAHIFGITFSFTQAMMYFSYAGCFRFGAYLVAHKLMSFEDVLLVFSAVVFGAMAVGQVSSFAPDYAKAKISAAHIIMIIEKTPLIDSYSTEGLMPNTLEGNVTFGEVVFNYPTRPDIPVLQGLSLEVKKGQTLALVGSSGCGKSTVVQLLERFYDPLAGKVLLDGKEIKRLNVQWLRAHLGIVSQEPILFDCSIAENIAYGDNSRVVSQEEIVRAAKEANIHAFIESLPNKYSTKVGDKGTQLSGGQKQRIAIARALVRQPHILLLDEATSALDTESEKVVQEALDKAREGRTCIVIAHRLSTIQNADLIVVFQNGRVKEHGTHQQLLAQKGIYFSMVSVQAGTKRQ
In series [2] the target is T1, ATP-dependent translocase ABCB1. As to the kind of experiment: TP_TRANSPORTER: increase in Rhodamine 123 intracellular accumulation (R123: 4 uM, Fangchinoline: 3 uM) in HCT15 cells. The class given is functional, cell-based. To be noted: hct-15, 3 µM.

Compound `COc1ccc2cc1Oc1ccc(cc1)C[C@H]1c3cc(c(OC)cc3CCN1C)Oc1c(OC)c(OC)cc3c1[C@H](C2)N(C)CC3` [FANCHININ] displayed an Activity in series [1] of 2.5 fold.
In series [2], `COc1ccc2cc1Oc1ccc(cc1)C[C@H]1c3cc(c(OC)cc3CCN1C)Oc1c(O)c(OC)cc3c1[C@H](C2)N(C)CC3` [FANGCHINOLINE] displayed an Activity of 2.4 fold.
